From patent US20230416258A1, “BENZ[…], AND PREPARATION METHOD THEREFOR AND USE THEREOF” (CHINA PHARMACEUTICAL UNIVERSITY, priority 2020, published 2023)

Test system: KM mice
Assay: Test for drug-induced disappearance of righting reflex in mice
Assay type: in vivo
Settings: single rapid bolus via tail vein
From the text: In anesthetic drug experiments, latency generally refers to the time from the start of administration to the loss of consciousness of the subject. The shorter latency is preferred, indicating a rapid onset of action after administration. The duration of anesthesia generally refers to the duration of time from the loss of consciousness to the restoration of consciousness of the subject. The duration of the drug will vary from animal model to animal species. Too long anesthesia may produce adverse cardiovascular and respiratory responses, such as adverse neurological effects to the subject, including sleepiness and dizziness; meanwhile, too short duration of anesthesia may affect the anesthesia effect, causing problems such as increase of anesthesia dosage during the operation.
KM mice (female, 18-25 g) were randomly grouped and subjected to a single administration by rapid bolus via the tail vein. The latency and duration of disappearance of righting reflex in the mice were recorded.

SMILES	Duration (30 mg/kg) [min]	Latency (30 mg/kg) [min]	Duration (60 mg/kg) [min]	Latency (60 mg/kg) [min]
COC(=O)CC[C@@H]1N=C(c2ccccc2Cl)c2cc(Cl)ccc2-n2c(S)nnc21 [Compound 2, methyl (S)-3-(8-chloro-6-(2-chlorophenyl)-1-mercapto-4H-benzo[f][1,2,4]triazolo[4,3-a][1,4]diazepin-4-yl)propionate]	5.27	0.58		
COC(=O)CC[C@@H]1N=C(c2ccccn2)c2cc(Br)ccc2-n2c(S)nnc21 [Compound 3, methyl (S)-3-(8-bromo-6-(pyridin-2-yl)-1-mercapto-4H-benzo[f][1,2,4]triazolo[4,3-a][1,4]diazepin-4-yl)propionate]	7.37	0.48		
COC(=O)CC[C@@H]1N=C(c2ccccc2)c2ccccc2-n2c(S)nnc21 [Compound 5, methyl (S)-3-(6-phenyl-1-mercapto-4H-benzo[f][1,2,4]triazolo[4,3-a][1,4]diazepin-4-yl)propionate]	13.27	1.11		
COC(=O)CC[C@@H]1N=C(c2ccc(F)cc2)c2ccccc2-n2c(S)nnc21 [Compound 6, methyl (S)-3-(6-(4-fluorophenyl)-1-mercapto-4H-benzo[f][1,2,4]triazolo[4,3-a][1,4]diazepin-4-yl)propionate]	9.93	0.59		
COC(=O)CC[C@@H]1N=C(c2ccccc2)c2cc(Cl)ccc2-n2c(S)nnc21 [Compound 7, methyl (S)-3-(8-chloro-6-phenyl-1-mercapto-4H-benzo[f][1,2,4]triazolo[4,3-a][1,4]diazepin-4-yl)propionate]	12.26	1.14		
COC(=O)CC[C@@H]1N=C(c2ccccc2F)c2cc(Cl)ccc2-n2c(SC)nnc21 [Compound 8, methyl (S)-3-(8-chloro-6-(2-fluorophenyl)-1-(methylthio)-4H-benzo[f][1,2,4]triazolo[4,3-a][1,4]diazepin-4-yl)propionate]	8.35	0.36		
COC(=O)CC[C@@H]1N=C(c2ccccc2F)c2cc(Br)ccc2-n2c(SC)nnc21 [Compound 9, methyl (S)-3-(8-bromo-6-(2-fluorophenyl)-1-(methylthio)-4H-benzo[f][1,2,4]triazolo[4,3-a][1,4]diazepin-4-yl)propionate]	12.12	0.84		
CCSc1nnc2n1-c1ccc(Cl)cc1C(c1ccccc1F)=N[C@H]2CCC(=O)OC [Compound 11, methyl (S)-3-(8-chloro-6-(2-fluorophenyl)-1-(ethylthio)-4H-benzo[f][1,2,4]triazolo[4,3-a][1,4]diazepin-4-yl)propionate]	6.37	0.77	7.98	0.83
CCSc1nnc2n1-c1ccc(Br)cc1C(c1ccccc1F)=N[C@H]2CCC(=O)OC [Compound 12, methyl (S)-3-(8-bromo-6-(2-fluorophenyl)-1-(ethylthio)-4H-benzo[f][1,2,4]triazolo[4,3-a][1,4]diazepin-4-yl)propionate]	17.21	0.74		
CCCSc1nnc2n1-c1ccc(Cl)cc1C(c1ccccc1F)=N[C@H]2CCC(=O)OC [Compound 14, methyl (S)-3-(8-chloro-6-(2-fluorophenyl)-1-(propylthio)-4H-benzo[f][1,2,4]triazolo[4,3-a][1,4]diazepin-4-yl)propionate]	9.12	0.78		
CCCSc1nnc2n1-c1ccc(Br)cc1C(c1ccccc1F)=N[C@H]2CCC(=O)OC [Compound 15, methyl (S)-3-(8-bromo-6-(2-fluorophenyl)-1-(propylthio)-4H-benzo[f][1,2,4]triazolo[4,3-a][1,4]diazepin-4-yl)propionate]	8.47	1.03		
